Assay results from publication PMC12194305, “Assessing Bioconcentration and Biotransformation of BDE-47 In Vitro: The Relevance of Bioavailable and Intracellular Concentrations” (Journal of Xenobiotics, 2025).
Where “and” joins values, the source holds several entries; their conditions need not be identical. Equal values may be shown once.

What was measured:
zebrafish = assay: IVIVE-BCF model with zebrafish default parameters; type: in vitro ADME; details: for BCFIVIVE, ZF: ZFL cells, zebrafish parameters
From the text: One of the objectives was to assess whether cell lines can be used within the BCF-IVIVE model, relying on intrinsic clearance in vitro, to estimate the biotransformation rate which is subsequently extrapolated to adult fish. This approach is based on the model developed by Nichols et al. and is endorsed by the OECD guideline 319A [10] and OECD 2018a. Briefly, the log10-transformed substrate experimental concentrations in the medium (Cmed) were plotted against time, and the first-order elimination rate constant (ke, h^−1) was determined as −2.3 × slope of the log-linear decline. Black et al. indicate that a correction to the elimination rate constant (ke) should be applied when the following conditions are met: (i) abiotic losses from volatilization, calculated by comparing the recovery of negative control samples (“no cells”) at each exposure time to the initial time, fall outside the acceptable range of 80–120%, (ii) the loss process follows first order kinetics, and (iii) the ratio of ke and the volatilization rate constant (kvolat) is below 10 (ke/kvolat < 10). Then, the constant corrected for losses due to volatilization (ke,loss) was determined as −2.3 × the difference of the slopes of the sample and the loss control of the log-linear descent. The in vitro constant was then extrapolated to obtain an in vivo metabolization constant (kMET). This was done using experimental cell concentration (CHEP, 10^6 cells/mL) and default parameters derived from rainbow trout. In this study, in addition to estimating BCF with the official model parameters derived from rainbow trout (BCFIVIVE,RT), BCF was also estimated with the literature-derived parameters for zebrafish (BCFIVIVE,ZF), due to the use of ZFL cells. Finally, the BCF was estimated by the ratio of concentration in the organism to concentration in the medium, following the standardized model. The concentration in the organism was predicted using the one-compartment model given by Arnot and Gobas, which includes the rate constants describing chemical uptake (k1), loss through the gills (k2), fecal egestion (kE), growth rate (kG) and metabolization rate (kMET). Except for kMET, which is estimated experimentally in vitro, the rest are only dependent on the log KOW of the compound. On the other hand, due to the use of cell lines, the free concentration estimated was introduced instead of the total concentration in the medium (CW,TOT).

[1] = Experimental determination of free bioavailable concentration (Cfree,exp) in exposure medium by SPME; type: in vitro ADME; details: for Cfree, exp: 28 °C, 72 h
Protocol: In parallel with the exposure experiment for the evaluation of bioaccumulation and biotransformation described in the previous sections, an experiment was performed to estimate experimentally the free bioavailable concentration (Cfree,exp) in the test medium. For this purpose, an experiment was designed to simulate the test conditions, and Cfree was determined using solid-phase microextraction (SPME), following the fiber method developed by Henneberger et al..
PDMS-coated glass microfibers (30 µm thick, 13.19 µL/m coating volume) were cut into 1.5 cm pieces and cleaned in methanol for more than 24 h prior to the experiment, with the solvent replaced at least three times. The cleaned and dried fiber was placed in a glass vial with 1 mL of sample exposure medium containing 1.8 and 2.6 mg·L^−1 BDE-47. Three replicates were prepared for each condition. A portion of the initial sample was stored at −20 °C until analysis. The vials were then sealed and incubated with rotation at 28 °C for 72 h until equilibrium of BDE-47 distribution among the fiber, medium, and binding to the predominant serum protein of the culture (Bovine serum albumin, BSA) was reached. Once at equilibrium, the fibers were extracted from the vials and desorbed with 400 µL isooctane for 24 h with rotation. Finally, the extract was analyzed by GC-MS-µECD, as described in Section 2.5. The concentration of BDE-47 in the initial sample (Cmed,0h) and in the resulting media after equilibration (Cmed,eq) was determined according to the procedure described in Section 2.5, to confirm the actual mass balance.
Since this study evaluates and discusses the behavior of BDE-47 in comparison to observations from a previous study with phenanthrene, as explained in the introduction section, the experimental Cfree of phenanthrene was also determined, as it had not been measured previously. In this case, the difference in the process was that PA fibers (36 µm thick, 16.71 µL/m coating volume) were used. Samples of 10 and 20 mg·L^−1 PHE were prepared, and the fibers and samples were incubated for 24–48 h until equilibrium was reached, and desorbed with hexane for 3 h.
To determine the free concentration, concentration in the SPME fiber (Cfiber) was first estimated using Equation (1) from the concentration measured in the desorption extract (Cdes), the desorption volume (Vdes) and the coating volume of the fiber (Vfiber). This volume was estimated according to the coating volume and the length of the fiber.(1) Cfiber=Cdes·Vdes/Vfiber
Next, Cfree,exp was determined at the time before the SPME fiber was added to the system, according to Equation (2). For this, the concentration measured in the fiber equilibrated with the medium (PDMS-BDE-47-BSA or PA-PHE-BSA), the concentration measured in the initial sample (Cmed,0h), and the partition constant of the equilibrium formed between the fiber and the medium (log DPDMS/medium; BDE-47 = 5.84 [25]; log DPA/medium; PHE = 6.69 [26]) were used.(2) Cfree=Cmed,0h·Vsample/Dfiber/medium·Cmed,0h·Vsample/Cfiber−Vfiber

[2] = cited from earlier work
Gammarus pulex = tested on: Gammarus pulex; design: method as in PMID 24879528; details: 1 µg·L^−1; cited from earlier work
ZFL cells = assay: Mass balance model (MBM) prediction of Cfree and Ccell; design: species or system zebrafish
Protocol: Ccell and Cfree were determined for the BDE-47 using Fisher et al.’s mass balance model (MBM). In brief, the test system parameters for the experiment (Table S3) and BDE-47 distribution parameters (Table S4) estimated by the UFZ-LSER Calculation Partition System tool were first entered into the MBM spreadsheet. Although this model includes preset parameters for various cell lines, the input fields for cell-line type and culture medium were left empty for ZFL, and generic parameters were applied instead. Then, data for fractions of cell (fcell), total medium (fmedium), cell membrane (fmem) and the water phase of the medium (fw,medium) compartment were output (Table S5) and applied to each experimentally determined BDE-47 Cmedium to estimate the Cfree, MBM and Ccell, MBM at each exposure time.

For `Brc1ccc(Oc2ccc(Br)cc2Br)c(Br)c1` [BDE-47, 2,2′,4,4′-tetrabromodiphenyl ether], the CLH (zebrafish; 1.8 mg·L-1, ZF) was 2.01 mL/h/kg, the “CLIN VITRO, INT” value (zebrafish; 1.8 mg·L-1, ZF) was 0.0220 mL/h/106 cells and the kMET (zebrafish; 1.8 mg·L-1, ZF) was 0.0022 day⁻¹. For the same compound, the CLH (zebrafish; 2.6 mg·L-1, ZF) was 0.333 mL/h/kg, the “CLIN VITRO, INT” value (zebrafish; 2.6 mg·L-1, ZF) was 0.0037 mL/h/106 cells and the kMET (zebrafish; 2.6 mg·L-1, ZF) was 0.0004 day⁻¹. For the same compound, the “BCFIVIVE, ZF” value (zebrafish; Cnominal 1.8 mg·L^−1) was 13,885 L·kg^−1, the “BCFIVIVE, ZF” value (zebrafish; Cnominal 2.6 mg·L^−1) was 14,926 L·kg^−1 and the “% Cfree, exp” value ([1]; Cnom 1.8 mg·L^−1, % of total concentration) was 0.06% and 0.06 ± 0.03%. The “Cfree, exp” value ([1]; Cnom 1.8 mg·L^−1, PDMS fiber) was “(0.4 ± 0.2) µg·L^−1”, the “% Cfree, exp” value ([1]; Cnom 2.6 mg·L^−1, % of total concentration) was 0.08% and 0.079 ± 0.003% and the “Cfree, exp” value ([1]; Cnom 2.6 mg·L^−1, PDMS fiber) was “(1.14 ± 0.04) µg·L^−1”. The “Henry's law constant (KH)” value ([2]; at 30 °C) was 1.79 ± 0.21 Pa·m^3·mol^−1, the “log Kow” value [2] was 6.81 and the “log DPDMS/medium” value ([2]; partition constant PDMS fiber/medium) was 5.84. For the same compound, the BCFk (Gammarus pulex) was roughly 5000 L/kg, the “Ratio MBM/experimental of internal concentration” value (“Ratio MBM/experimental” below) (ZFL cells; 24h, 1.8 mg·L-1, ZFL cells) was 51% and the “Ratio MBM/experimental” value (ZFL cells; 24h, 2.6 mg·L-1, ZFL cells) was 73%. The “Ratio MBM/experimental” value (ZFL cells; 48h, 1.8 mg·L-1, ZFL cells) was 44%, the “Ratio MBM/experimental” value (ZFL cells; 48h, 2.6 mg·L-1, ZFL cells) was 78% and the “Ratio MBM/experimental” value (ZFL cells; 72h, 1.8 mg·L-1, ZFL cells) was 36%. The “Ratio MBM/experimental” value (ZFL cells; 72h, 2.6 mg·L-1, ZFL cells) was 66%.
